{"source": "paper PMC3382171", "about": "(PLoS ONE, 2012)", "assay_in_all_cases": "biochemical", "set-up_in_all_cases": "Invitrogen SelectScreen kinase panel, percent inhibition at 1 uM, ATP at Km", "conditions_in_all_cases": "read-out: Invitrogen KSS %Inh at 1 µM", "key": {"ABL1": {"target": "ABL1 (Homo sapiens, UniProt P00519)", "sequence (P00519 whole entry)": "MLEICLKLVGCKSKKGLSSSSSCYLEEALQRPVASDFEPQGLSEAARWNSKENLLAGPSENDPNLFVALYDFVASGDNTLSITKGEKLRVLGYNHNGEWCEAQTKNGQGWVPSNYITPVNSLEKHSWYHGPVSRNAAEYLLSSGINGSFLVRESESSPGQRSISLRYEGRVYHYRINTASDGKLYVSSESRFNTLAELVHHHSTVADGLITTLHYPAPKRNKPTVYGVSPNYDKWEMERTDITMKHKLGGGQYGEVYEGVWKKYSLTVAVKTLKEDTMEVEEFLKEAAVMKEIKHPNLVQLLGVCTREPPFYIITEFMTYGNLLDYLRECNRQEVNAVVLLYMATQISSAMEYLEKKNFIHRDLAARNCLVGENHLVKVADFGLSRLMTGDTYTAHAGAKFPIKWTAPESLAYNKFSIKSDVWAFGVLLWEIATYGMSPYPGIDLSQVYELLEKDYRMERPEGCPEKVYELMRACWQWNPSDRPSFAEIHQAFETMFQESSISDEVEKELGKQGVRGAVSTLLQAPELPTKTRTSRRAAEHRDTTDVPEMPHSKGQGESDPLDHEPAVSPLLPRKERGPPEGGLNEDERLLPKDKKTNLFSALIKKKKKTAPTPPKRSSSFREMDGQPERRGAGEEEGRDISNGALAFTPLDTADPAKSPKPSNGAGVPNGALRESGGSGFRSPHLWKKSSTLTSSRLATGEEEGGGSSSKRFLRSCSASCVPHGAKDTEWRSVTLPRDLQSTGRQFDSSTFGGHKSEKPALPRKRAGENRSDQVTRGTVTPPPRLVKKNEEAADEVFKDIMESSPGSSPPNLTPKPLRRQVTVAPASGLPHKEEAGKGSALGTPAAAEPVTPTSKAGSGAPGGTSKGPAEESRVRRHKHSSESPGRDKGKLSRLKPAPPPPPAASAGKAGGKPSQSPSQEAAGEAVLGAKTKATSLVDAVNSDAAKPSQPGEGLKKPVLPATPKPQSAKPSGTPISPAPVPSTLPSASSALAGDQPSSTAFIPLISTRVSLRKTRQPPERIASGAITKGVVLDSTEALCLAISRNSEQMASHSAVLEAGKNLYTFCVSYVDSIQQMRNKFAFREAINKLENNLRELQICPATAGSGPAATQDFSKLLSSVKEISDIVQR", "in_short": "(§1)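 Commercial kinase panel screens run with ATP at the Km for each kinase. Compounds tested at 1 µM final concentration; values are % inhibition of phosphorylation relative to control.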"}, "BLK": {"target": "BLK (Homo sapiens, UniProt P51451)", "in_short": "as §1"}, "BTK": {"target": "BTK (Homo sapiens, UniProt Q06187)", "in_short": "as §1"}, "CLK1": {"target": "CLK1 (Homo sapiens, UniProt P49759)", "in_short": "as §1"}, "CSNK2A1 (CK2 alpha 1)": {"target": "CSNK2A1 (CK2 alpha 1) (Homo sapiens, UniProt P68400)", "sequence (P68400 whole entry)": "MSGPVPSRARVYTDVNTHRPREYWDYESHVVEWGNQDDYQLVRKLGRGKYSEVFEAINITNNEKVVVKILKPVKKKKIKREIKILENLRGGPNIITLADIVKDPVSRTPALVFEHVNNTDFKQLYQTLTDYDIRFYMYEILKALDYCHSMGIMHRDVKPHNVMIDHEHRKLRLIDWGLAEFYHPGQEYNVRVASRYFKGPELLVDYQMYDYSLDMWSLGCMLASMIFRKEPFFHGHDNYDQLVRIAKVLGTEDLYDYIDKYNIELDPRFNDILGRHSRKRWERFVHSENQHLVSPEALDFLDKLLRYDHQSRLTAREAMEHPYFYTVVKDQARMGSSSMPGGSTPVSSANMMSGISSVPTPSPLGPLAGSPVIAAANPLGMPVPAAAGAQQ", "in_short": "as §1"}, "EPHB2": {"target": "EPHB2 (Homo sapiens, UniProt P29323)", "in_short": "as §1"}, "EPHB4": {"target": "EPHB4 (Homo sapiens, UniProt P54760)", "in_short": "as §1"}, "FES (FPS)": {"target": "FES (FPS) (Homo sapiens, UniProt P07332)", "in_short": "as §1"}, "INSRR (IRR)": {"target": "INSRR (IRR) (Homo sapiens, UniProt P14616)", "sequence (P14616 whole entry)": "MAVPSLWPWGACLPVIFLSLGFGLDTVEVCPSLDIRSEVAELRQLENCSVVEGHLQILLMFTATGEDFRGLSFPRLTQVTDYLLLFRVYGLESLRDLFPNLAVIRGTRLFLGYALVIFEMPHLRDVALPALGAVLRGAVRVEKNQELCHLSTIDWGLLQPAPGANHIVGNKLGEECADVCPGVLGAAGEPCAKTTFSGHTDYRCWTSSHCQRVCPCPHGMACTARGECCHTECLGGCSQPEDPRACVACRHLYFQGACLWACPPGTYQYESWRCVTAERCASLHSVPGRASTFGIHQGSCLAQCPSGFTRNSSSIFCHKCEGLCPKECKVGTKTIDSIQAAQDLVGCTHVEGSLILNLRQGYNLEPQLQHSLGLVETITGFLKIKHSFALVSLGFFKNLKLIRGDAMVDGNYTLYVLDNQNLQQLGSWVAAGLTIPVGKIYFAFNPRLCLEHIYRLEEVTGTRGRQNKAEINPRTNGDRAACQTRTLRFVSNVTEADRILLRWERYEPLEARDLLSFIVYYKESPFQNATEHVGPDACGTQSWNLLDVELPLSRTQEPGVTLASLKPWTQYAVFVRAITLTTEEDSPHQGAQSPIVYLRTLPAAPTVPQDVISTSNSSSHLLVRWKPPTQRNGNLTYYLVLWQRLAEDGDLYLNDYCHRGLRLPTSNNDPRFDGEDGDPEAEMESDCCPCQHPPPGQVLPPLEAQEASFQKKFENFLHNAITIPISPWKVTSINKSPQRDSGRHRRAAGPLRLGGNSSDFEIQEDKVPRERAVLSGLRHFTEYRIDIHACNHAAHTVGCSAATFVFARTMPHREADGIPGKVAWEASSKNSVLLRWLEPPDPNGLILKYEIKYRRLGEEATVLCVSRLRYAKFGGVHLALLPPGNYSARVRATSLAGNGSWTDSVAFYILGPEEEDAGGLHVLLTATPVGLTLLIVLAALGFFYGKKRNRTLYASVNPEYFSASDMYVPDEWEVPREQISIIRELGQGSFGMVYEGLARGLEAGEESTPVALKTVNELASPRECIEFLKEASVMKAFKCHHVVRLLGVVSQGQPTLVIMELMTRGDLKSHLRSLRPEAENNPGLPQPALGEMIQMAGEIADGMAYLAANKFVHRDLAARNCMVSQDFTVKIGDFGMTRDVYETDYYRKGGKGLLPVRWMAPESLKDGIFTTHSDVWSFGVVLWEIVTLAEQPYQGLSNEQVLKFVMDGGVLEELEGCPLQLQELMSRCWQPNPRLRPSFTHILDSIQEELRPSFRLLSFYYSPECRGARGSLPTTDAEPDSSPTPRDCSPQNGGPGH", "in_short": "as §1"}, "KIT": {"target": "KIT (Homo sapiens, UniProt P10721)", "sequence (P10721 whole entry)": "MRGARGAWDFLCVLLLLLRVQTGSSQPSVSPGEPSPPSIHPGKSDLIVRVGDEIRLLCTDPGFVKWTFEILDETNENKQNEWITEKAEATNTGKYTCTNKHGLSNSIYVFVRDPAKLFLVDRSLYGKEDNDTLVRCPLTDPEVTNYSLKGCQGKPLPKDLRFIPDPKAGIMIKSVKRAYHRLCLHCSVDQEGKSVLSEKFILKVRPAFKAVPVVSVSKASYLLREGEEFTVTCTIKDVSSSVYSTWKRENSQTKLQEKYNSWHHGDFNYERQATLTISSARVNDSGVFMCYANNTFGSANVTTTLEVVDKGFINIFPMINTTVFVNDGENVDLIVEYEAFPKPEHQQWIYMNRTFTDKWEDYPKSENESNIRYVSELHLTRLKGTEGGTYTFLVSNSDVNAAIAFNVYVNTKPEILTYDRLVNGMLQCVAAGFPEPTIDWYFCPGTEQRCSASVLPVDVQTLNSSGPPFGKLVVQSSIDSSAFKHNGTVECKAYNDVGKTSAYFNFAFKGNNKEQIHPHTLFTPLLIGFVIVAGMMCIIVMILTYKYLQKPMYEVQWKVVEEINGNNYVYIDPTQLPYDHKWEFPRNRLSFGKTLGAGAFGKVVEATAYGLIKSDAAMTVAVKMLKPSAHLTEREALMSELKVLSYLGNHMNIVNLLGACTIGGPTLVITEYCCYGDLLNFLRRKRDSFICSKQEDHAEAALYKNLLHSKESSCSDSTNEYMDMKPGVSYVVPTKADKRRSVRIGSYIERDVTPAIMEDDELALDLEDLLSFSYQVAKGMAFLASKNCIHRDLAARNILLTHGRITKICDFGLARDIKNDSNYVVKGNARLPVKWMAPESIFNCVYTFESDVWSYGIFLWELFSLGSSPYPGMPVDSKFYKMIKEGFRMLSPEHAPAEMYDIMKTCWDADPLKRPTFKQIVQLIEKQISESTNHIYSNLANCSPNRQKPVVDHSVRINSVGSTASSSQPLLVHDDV", "in_short": "as §1"}, "MAP4K2 (GCK)": {"target": "MAP4K2 (GCK) (Homo sapiens, UniProt Q12851)", "in_short": "as §1"}, "NEK2": {"target": "NEK2 (Homo sapiens, UniProt P51955)", "in_short": "as §1"}, "PIM1": {"target": "PIM1 (Homo sapiens, UniProt P11309)", "sequence (P11309 whole entry)": "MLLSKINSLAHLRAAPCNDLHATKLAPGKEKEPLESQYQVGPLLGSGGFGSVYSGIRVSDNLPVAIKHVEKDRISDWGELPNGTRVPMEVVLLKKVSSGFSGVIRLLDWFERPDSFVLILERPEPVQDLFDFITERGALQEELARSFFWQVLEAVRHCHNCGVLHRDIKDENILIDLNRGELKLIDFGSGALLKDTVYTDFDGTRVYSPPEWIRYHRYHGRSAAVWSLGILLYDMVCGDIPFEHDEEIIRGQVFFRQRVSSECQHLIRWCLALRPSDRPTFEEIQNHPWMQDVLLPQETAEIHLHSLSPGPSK", "in_short": "as §1"}, "PIM2": {"target": "PIM2 (Homo sapiens, UniProt Q9P1W9)", "in_short": "as §1"}, "PLK1": {"target": "PLK1 (Homo sapiens, UniProt P53350)", "in_short": "as §1"}, "PRKCB1 (PKC beta I)": {"target": "T1, PRKCB1 (PKC beta I) (Homo sapiens, UniProt P05771)", "T1 construct": "gene PRKCB; isoform beta I", "in_short": "as §1"}, "PRKCQ (PKC theta)": {"target": "PRKCQ (PKC theta) (Homo sapiens, UniProt Q04759)", "in_short": "as §1"}, "PRKD1 (PKC mu)": {"target": "PRKD1 (PKC mu) (Homo sapiens, UniProt Q15139)", "in_short": "as §1"}, "PRKD2 (PKD2)": {"target": "PRKD2 (PKD2) (Homo sapiens, UniProt Q9BZL6)", "in_short": "as §1"}, "RPS6KA5 (MSK1)": {"target": "RPS6KA5 (MSK1) (Homo sapiens, UniProt O75582)", "sequence (O75582 whole entry)": "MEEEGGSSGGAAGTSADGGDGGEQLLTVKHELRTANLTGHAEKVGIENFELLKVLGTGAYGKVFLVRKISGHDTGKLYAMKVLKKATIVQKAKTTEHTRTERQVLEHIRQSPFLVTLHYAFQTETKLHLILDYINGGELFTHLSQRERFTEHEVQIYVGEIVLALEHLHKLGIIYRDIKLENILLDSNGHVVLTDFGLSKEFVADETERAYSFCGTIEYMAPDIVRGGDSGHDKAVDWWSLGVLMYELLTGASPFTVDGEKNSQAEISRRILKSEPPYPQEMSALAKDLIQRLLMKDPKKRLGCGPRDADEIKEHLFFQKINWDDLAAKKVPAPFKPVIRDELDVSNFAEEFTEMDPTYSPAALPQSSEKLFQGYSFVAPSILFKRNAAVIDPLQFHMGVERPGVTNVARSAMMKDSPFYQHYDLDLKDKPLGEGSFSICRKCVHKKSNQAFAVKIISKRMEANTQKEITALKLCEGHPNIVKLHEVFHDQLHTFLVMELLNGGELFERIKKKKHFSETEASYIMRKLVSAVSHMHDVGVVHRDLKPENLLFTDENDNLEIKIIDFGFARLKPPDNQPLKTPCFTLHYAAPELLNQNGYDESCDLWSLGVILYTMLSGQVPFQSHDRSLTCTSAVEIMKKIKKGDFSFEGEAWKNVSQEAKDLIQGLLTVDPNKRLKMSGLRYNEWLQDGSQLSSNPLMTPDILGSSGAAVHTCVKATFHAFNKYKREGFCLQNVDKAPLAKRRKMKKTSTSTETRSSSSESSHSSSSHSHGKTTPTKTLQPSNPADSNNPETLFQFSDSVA", "in_short": "as §1"}, "STK22B (TSSK2)": {"target": "STK22B (TSSK2) (Homo sapiens, UniProt Q96PF2)", "in_short": "as §1"}, "SYK": {"target": "SYK (Homo sapiens, UniProt P43405)", "in_short": "as §1"}}}
{"smiles": "N#CCCNc1nccc(-c2cn(CC(F)F)nc2-c2cnc3[nH]ccc3c2)n1", "note": "[RAFi, PF-04880594]", "values": [{"measurement": "inhibition at 1 µM", "setting": "ABL1", "value": 6, "unit": "%"}, {"measurement": "inhibition at 1 µM", "setting": "BLK", "value": 7, "unit": "%"}, {"measurement": "inhibition at 1 µM", "setting": "BTK", "value": -7, "unit": "%"}, {"measurement": "inhibition at 1 µM", "setting": "CLK1", "value": 1, "unit": "%"}, {"measurement": "inhibition at 1 µM", "setting": "CSNK2A1 (CK2 alpha 1)", "value": -1, "unit": "%"}, {"measurement": "inhibition at 1 µM", "setting": "EPHB2", "value": 3, "unit": "%"}, {"measurement": "inhibition at 1 µM", "setting": "EPHB4", "value": 2, "unit": "%"}, {"measurement": "inhibition at 1 µM", "setting": "FES (FPS)", "value": -11, "unit": "%"}, {"measurement": "inhibition at 1 µM", "setting": "INSRR (IRR)", "value": 3, "unit": "%"}, {"measurement": "inhibition at 1 µM", "setting": "KIT", "value": 36, "unit": "%"}, {"measurement": "inhibition at 1 µM", "setting": "MAP4K2 (GCK)", "value": -12, "unit": "%"}, {"measurement": "inhibition at 1 µM", "setting": "NEK2", "value": 40, "unit": "%"}, {"measurement": "inhibition at 1 µM", "setting": "PIM1", "value": 2, "unit": "%"}, {"measurement": "inhibition at 1 µM", "setting": "PIM2", "value": 3, "unit": "%"}, {"measurement": "inhibition at 1 µM", "setting": "PLK1", "value": 27, "unit": "%"}, {"measurement": "inhibition at 1 µM", "setting": "PRKCB1 (PKC beta I)", "value": 36, "unit": "%"}, {"measurement": "inhibition at 1 µM", "setting": "PRKCQ (PKC theta)", "value": -2, "unit": "%"}, {"measurement": "inhibition at 1 µM", "setting": "PRKD1 (PKC mu)", "value": 37, "unit": "%"}, {"measurement": "inhibition at 1 µM", "setting": "PRKD2 (PKD2)", "value": 40, "unit": "%"}, {"measurement": "inhibition at 1 µM", "setting": "RPS6KA5 (MSK1)", "value": 3, "unit": "%"}, {"measurement": "inhibition at 1 µM", "setting": "STK22B (TSSK2)", "value": 2, "unit": "%"}, {"measurement": "inhibition at 1 µM", "setting": "SYK", "value": -35, "unit": "%"}]}
